Experiment [1] concerns mRNA for HDM2 in Huh7 cells. Nature of the experiment: quantitative real-time PCR and end-point PCR of HDM2. The settings on record: β-actin as loading control. It is filed as cell-based, human. The method, then:
Huh7 cells were incubated with spiroligomer 1 and Nutlin-3 in media at 2, 5, 10 and 20 µM for 17 hours at 37°C. […] Huh7 cells were then incubated with 1 at 15 µM and cells were harvested at 2, 4, 6, 8, 12 and 24 hours. […] Our hypothesis is that compound 1 stabilizes HDM2 to proteolysis. Studies are underway to determine the mechanism of HDM2 stabilization by compound 1.
RNA Extraction, Reverse Transcription and PCR Analysis. Total RNA was extracted using High Pure RNA Isolation Kit (Roche Applied Science) according to enclosed instructions. cDNA was prepared using RETROscript Reverse Transcription Kit (Ambion). HDM2 primers (Ensembl […]
(forward) and 5'-[…]-3' (reverse). These primers recognize cDNAs of all HDM2 isoforms with p53 binding sequence7 and generate 102 bp amplicon. β-actin primers for 243 bp PCR transcript (Ensemble gene: Actb, ENSRNOG00000034254) were 5’- […]
[…]-3’ (forward) and 5’-[…]-3’ (reverse).
Primers were designed using Primer3Plus Web Interface. cDNA was amplified using FastStart SYBR Green Master Kit (Roche Applied Science). Real-time quantitative PCR was performed using Stratagene Mx 3005P QPCR system. PCR samples were amplified in 40 cycles; each cycle consisted of 60 sec of denaturation at 95 °C, 60 sec of annealing at 60 °C, and 60 sec of elongation at 72 °C. […]
Figure S.7. Real-time quantitative PCR (A.) and end-point PCR (B.) analysis of HDM2 in Huh7 cells […]

Experiment [2] has as its target T1, HDM2_25–117 (Homo sapiens, UniProt Q00987).
T1 construct: unnamed fusion partner ('fusion protein'); made in house; host or cells: E. coli BL21
Nature of the experiment: direct binding fluorescence polarization assay. The settings on record: for fluorescence polarization: oligomer 10 nM, three independent replicates. On the procedure:
To measure the binding affinity of the functionalized spiroligomers to HDM2 we utilized a direct binding fluorescence polarization assay. The binding of the fluorescein labeled spiroligomers was measured at 10 nM spiroligomer in the presence of varying concentrations of HDM2_25–117 [31]. […] The initial screen of spiroligomers including 3–7 was carried out on the spiroligomer backbone containing all (S) stereochemistry to identify appropriate functional groups to mimic the side chains of Phe19, Trp23 and Leu26 of the p53 helix.
HDM2 Protein Expression. A fusion protein consisting of residues 1-140 (the plasmid was a generous gift from the lab of Neil Zondlo, University of Delaware) was prepared by over-expression.4 Plasmids were used to transform chemically competent E-coli BL21 Cells (Novagen), and a single colony was used to inoculate 2×4 mL LB media culture tubes containing 0.1 mg/mL ampicillin, at 37 °C overnight. These overnight cultures were used to inoculate a 1 L culture of TB media containing 0.1 mg/ml ampicillin. The culture was incubated at 37 °C with shaking at 250 rpm until the optical density at 600 nm reached to 0.9 absorbance units. Protein overexpression was then induced by the addition of 20% isopropyl β-D-thiogalactoside (IPTG) to 0.4 mM final concentration. The culture was then grown for additional 5 hours at 30 °C. Then cells were harvested at 4 °C by centrifugation at 4500 rpm for 20 min.
The cell pellet was resuspended in chilled 1x Binding Buffer (0.5 M NaCl, 20 mMTris-Hcl, 5 mM imidazole, pH 7.9), frozen and stored at -80 °C until protein purification.
Protein Purification. The frozen cell pellet was thawed at 4 °C and lysed by sonication for 2 minutes with 10 sec on and 20 sec off. Cell debris was pelleted by centrifugation for 30 min at 15000 g, 4 °C and the supernatant was filtered through a 0.2 μm syringe filter. A column was prepared using 2 mL Novagen His-Bind suspended resin and resin was washed with 3 volumes DI water. The flow rate maintained was not more than 0.5 ml/min throughout the purification.
The resin was charged with 5 vol 1x Charge Buffer (50 mM NiSO4) and then equilibrated with 3 vol 1x Binding Buffer (5 mM imidazole). After loading the column with prepared extract, the resin was washed with 10 vol 1x Binding Buffer and then with 6 vol 1x Wash Buffer (10 mM imidazole). Protein was then eluted with 6 vol 1x Elution Buffer (1 M imidazole). The eluate was captured in fractions of 0.5 ml. Fractions were assayed with Coomasie blue and desired fractions were combined and dialyzed using spectra/por 6 Dialysis Membranes of 10,000 MWCO (Spectrum Laboratories) in PBS (pH 7.4, 5 mM EDTA and 0.5 mM DTT) for overnight.
The resulting protein was characterized by SDS-PAGE (4-20% gradient gel) for purity analysis and concentrations were measured by UV analysis.
Fresh protein was used immediately for protein binding experiments. […]
Direct Binding Fluorescence Polarization Experiments. Fluorescence polarization experiments were undertaken to assess the ability of spiroligomers to bind HDM2, a protein with hydrophobic cleft that binds the p53 N-terminal helical domain. Fluoresceinated oligomers (conc. of 10 nM) were incubated for 30 minutes at room temperature with sequential dilutions of […]

Molecules are shown by their SMILES. “And” between values parts separate entries of the source, which are not always exact repeats. Identical values can stand only once. “Also recorded” adds a separate entry of the source.

T1 sequence (Q00987 25-117): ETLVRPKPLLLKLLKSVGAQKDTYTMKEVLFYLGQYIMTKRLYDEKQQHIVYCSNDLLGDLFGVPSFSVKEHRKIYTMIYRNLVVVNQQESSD

`CC(C)CN1C(=O)[C@@H]2C[C@@]3(CN2C(=O)[C@@]12C[C@H]1C(=O)N(Cc4ccc(Cl)c(Cl)c4)[C@]4(C[C@@H]5C(=O)N[C@@H](CCc6ccccc6)C(=O)N5C4)C(=O)N1C2)NC(=O)[C@@H](CCCCNC(=S)Nc1ccc2c(c1)C(=O)OC21c2ccc(O)cc2Oc2cc(O)ccc21)NC3=O` [Compound 1]: the “level of mRNA for HDM2” value in experiment [1] is given as “no effect; also recorded: no difference in HDM2 expression levels”. In addition, the “increase in affinity for HDM2” value in experiment [2] (1 versus 9, differing only in the stereocenter of the lysine residue) is reported as about 17 fold. The fluorescence polarization in experiment [2] ([hDM2] 0.08106232 nM) is 68. 58 millipolarization and 68. 27 millipolarization and 70. 47 millipolarization; in experiment [2] ([hDM2] 0.1621246 nM) it was 65. 92 millipolarization and 65. 99 millipolarization and 65. 14 millipolarization; in experiment [2] ([hDM2] 0.3242493 nM), 75. 62 millipolarization and 76. 93 millipolarization and 62. 45 millipolarization; in experiment [2] ([hDM2] 0.6484985 nM), 76. 88 millipolarization and 65. 12 millipolarization and 66. 54 millipolarization; in experiment [2] ([hDM2] 1.296997 nM), 74. 46 millipolarization and 61. 79 millipolarization and 70. 28 millipolarization; in experiment [2] ([hDM2] 2.593994 nM) it was 69. 71 millipolarization and 64. 6 millipolarization and 67. 34 millipolarization. The fluorescence polarization is 68. 52 millipolarization and 66. 82 millipolarization and 65. 52 millipolarization in experiment [2] ([hDM2] 5.187988 nM); 78. 3 millipolarization and 73. 95 millipolarization and 76. 62 millipolarization in experiment [2] ([hDM2] 10.37598 nM); 75. 45 millipolarization and 72. 99 millipolarization and 76. 91 millipolarization in experiment [2] ([hDM2] 20.75195 nM); 82. 2 millipolarization and 90. 13 millipolarization and 83. 56 millipolarization in experiment [2] ([hDM2] 41.50391 nM); 90. 07 millipolarization and 92. 68 millipolarization and 90. 31 millipolarization in experiment [2] ([hDM2] 83.00781 nM); 123. 93 millipolarization and 122. 78 millipolarization and 128. 68 millipolarization in experiment [2] ([hDM2] 166.0156 nM). In addition, the fluorescence polarization is 176. 96 millipolarization and 168. 11 millipolarization and 165. 21 millipolarization in experiment [2] ([hDM2] 332.0313 nM); 219. 16 millipolarization and 207. 64 millipolarization and 219. 81 millipolarization in experiment [2] ([hDM2] 664.0625 nM); 249. 64 millipolarization and 254. 41 millipolarization and 260. 31 millipolarization in experiment [2] ([hDM2] 1328.125 nM); 276. 63 millipolarization and 280. 28 millipolarization and 279. 87 millipolarization in experiment [2] ([hDM2] 2656.25 nM); 283. 09 millipolarization and 283. 22 millipolarization and 294. 56 millipolarization in experiment [2] ([hDM2] 5312.5 nM); 279. 23 millipolarization and 291. 88 millipolarization and 291. 17 millipolarization in experiment [2] ([hDM2] 10625 nM). In addition, the fluorescence polarization in experiment [2] ([hDM2] 21250 nM) was 289. 83 millipolarization and 291. 58 millipolarization and 284. 9 millipolarization; in experiment [2] ([hDM2] 42500 nM), 280. 74 millipolarization and 287. 71 millipolarization and 288. 59 millipolarization. For the same compound, in experiment [2] (epimers 12 and 1), the “difference in binding to HDM2” value is recorded as “four-fold”. Further, the Kd in experiment [2] (fluorescein labeled ligand at 10 nM, varying HDM2, read-out: Kd (HDM2)) amounted to 400 nM.

(Values after PMC3475717, “A Spiroligomer α-Helix Mimic That Binds HDM2, Penetrates Human Cells and Stabilizes HDM2 in Cell Culture” (PLoS ONE, 2012).)
